Legend:
Experiment in all cases: relative viability (nuclei count vs DMSO), 5 days (fraction); higher = more cells survive
[1] = compound: CC1CC(=O)N(C2=CN=C(N=C2N1C3CCCC3)NC4=C(C=C(C=C4)C(=O)NC5CCN(CC5)C)OC)C [NPK76-II-72-1] + CC1(C)CCC(c2ccc(Cl)cc2)=C(CN2CCN(c3ccc(C(=O)NS(=O)(=O)c4ccc(N[C@H](CCN5CCOCC5)CSc5ccccc5)c(S(=O)(=O)C(F)(F)F)c4)cc3)CC2)C1 [Navitoclax] (partner 0.5 µM)
In short: (§1)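 Five library-drug doses in √10 steps were combined with a fixed anchor-drug dose, or a single drug was given alone, by pin tool to lung cancer cell lines in 1536-well plates the day after seeding. Nuclei were stained and counted after 5 days. Relative viability is the nuclei count in treated wells over that in vehicle wells, taken as the median of duplicate plates.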

[2] = compound: CC1CC(=O)N(C2=CN=C(N=C2N1C3CCCC3)NC4=C(C=C(C=C4)C(=O)NC5CCN(CC5)C)OC)C [NPK76-II-72-1] + COc1cc2c(Oc3ccc(NC(=O)C4(C(=O)Nc5ccc(F)cc5)CC4)cc3F)ccnc2cc1OCCCN1CCOCC1 [Foretinib] (partner 0.25 µM)
In short: as §1

BI-2536 = compound: CC[C@@H]1C(=O)N(C)c2cnc(Nc3ccc(C(=O)NC4CCN(C)CC4)cc3OC)nc2N1C1CCCC1 [BI-2536]
In short: (§2)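 Vehicle-anchored 1536-well plates of lung cancer cell lines, held overnight at 37 °C, were pinned with five library-drug doses (not always all listed) spaced by √10. No medium change followed over the next 5 days, after which the cells were fixed, permeabilised and Hoechst-stained together and imaged at 4×. Nuclei were counted with MetaXpress, and viability is treated-well nuclei over vehicle-well nuclei, taken as a median across plates. Plates passed with control CV below 25% and at least one doubling.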

NPK76-II-72-1 = compound: CC1CC(=O)N(C2=CN=C(N=C2N1C3CCCC3)NC4=C(C=C(C=C4)C(=O)NC5CCN(CC5)C)OC)C [NPK76-II-72-1]
In short: as §2

Cell Line	relative viability ([1]; first compound 0.01 µM)	relative viability ([1]; first compound 0.03162 µM)	relative viability ([1]; first compound 0.1 µM)	relative viability ([1]; first compound 0.3162 µM)	relative viability ([1]; first compound 1 µM)	relative viability ([2]; first compound 0.01 µM)	relative viability ([2]; first compound 0.03162 µM)	relative viability ([2]; first compound 0.1 µM)	relative viability ([2]; first compound 0.3162 µM)	relative viability ([2]; first compound 1 µM)	relative viability (BI-2536; 0.01 µM)	relative viability (BI-2536; 0.03162 µM)	relative viability (BI-2536; 0.1 µM)	relative viability (BI-2536; 0.3162 µM)	relative viability (BI-2536; 1 µM)	relative viability (NPK76-II-72-1; 0.01 µM)	relative viability (NPK76-II-72-1; 0.03162 µM)	relative viability (NPK76-II-72-1; 0.1 µM)	relative viability (NPK76-II-72-1; 0.3162 µM)	relative viability (NPK76-II-72-1; 1 µM)
LOU-NH91	0.635	0.66	0.666	0.517	0.833	0.871	0.933	0.948	0.795	1	1.03	0.924	0.824	0.319	0.271	0.952	0.991	0.876	0.793	1.09
NCI-H3122	1.01	0.988	1	1.05	1.02	0.93	1.01	0.902	0.866	0.958	0.992	0.942	0.243	0.173	0.145	0.97	1.01	0.988	1	1
NCI-H460	1.17	1.45	1.19	1.18	1.23	0.931	1.02	0.996	1.01	1.02	1.05	1.03	0.552	0.0431	0.0258	0.98	1.04	1.02	0.983	0.992
NCI-H1793	0.399	0.642	0.477	0.302	0.41	0.659	0.687	0.747	0.559	0.533	0.912	0.816	0.314	0.161	0.196	0.76	1.06	1.15	0.741	0.915
NCI-H1734	0.861	0.896	0.823	0.766	0.866	0.84	0.792	0.857	0.84	1.22	1.01	0.725	0.234	0.199	0.211	0.926	1.03	1	0.967	1.1
LXF-289	0.877	0.964	0.954	0.88	0.941	0.945	1.03	0.896	0.948	0.961	1.04	0.977	0.651	0.0735	0.0855	0.954	1.02	0.968	1.04	0.988
H3255	0.556	0.494	0.52	0.173	0.639	0.838	0.797	0.854	0.633	0.867	0.86	0.872	0.573	0.257	0.29	0.918	0.938	0.995	0.72	1.1
201T	1.18	1.18	1.23	1.2	1.19	1.06	1.12	1.15	1.06	1.27	0.996	0.987	0.977	0.391	0.255	0.973	1	0.958	0.988	1.03
NCI-H2126	0.82	0.857	0.874	0.799	0.881	1.47	1.23	0.916	1.14	1.17	1.02	0.991	0.656	0.314	0.245	0.966	1.06	0.999	0.996	1.09
HOP-62	0.973	1.12	0.947	1.06	0.954	1.06	1.27	0.993	1.15	1.08	1	1.07	0.775	0.194	0.155	0.935	1.02	0.937	0.875	1.05
CAL-12T	1.15	1.32	1.22	1.02	1.18	1.11	1.18	1.03	1.1	1.3	0.882	0.849	0.718	0.159	0.198	0.933	1.02	1.01	0.927	1.15
NCI-H520	0.927	1.05	1.01	1.04	1.03	0.648	0.854	0.674	0.867	0.794	0.902	0.737	0.61	0.238	0.225	0.869	1.03	0.991	1.03	0.947
NCI-H1755	0.942	1.01	0.953	0.989	1.02	0.968	0.916	0.883	0.893	0.917	0.994	0.974	0.695	0.332	0.291	0.97	0.998	1	0.979	1.02
NCI-H2023	0.943	0.947	0.969	0.923	1.01	0.659	0.797	–	0.624	1.07	0.954	0.909	0.266	0.0935	0.11	0.904	1.05	1.07	0.941	0.96
NCI-H2009	1.11	1.28	1.1	1.14	1.17	0.843	1.25	1.22	1.21	1.23	0.959	0.918	0.579	0.198	0.209	0.98	1.05	1	0.933	1.1
